# Results from patent US20230346969A1, “INTERMEDIATE FOR PREPARING ANTIBODY-DRUG CONJUGATE (ADC), PREPARATION METHOD THEREFOR, AND USE THEREOF” (priority 2020, published 2023).
# Experiments:
# [1] = Dose tolerability, single intravenous dose acute toxicity; type: in vivo; conditions: BALB/c mice
# Procedure: Dose tolerability assay was performed in BALB/c mice (3 mice per dose). The drug was given in a single intravenous dose. The injection doses of hRS7-VK-PTX were 60, 80 and 100 mg/kg, and the injection doses of hRS7-VK-MMAE were 60 and 80 mg/kg, respectively. Toxicity was assessed by observing mouse behavior, weight loss and survival. The weight change rate (%) was calculated as: (body weight - body weight before treatment)/(body weight before treatment) × 100%.
# The safety of relatively high doses of hRS7-VK-PTX in BALB/c mice was studied by an acute toxicity experiment with single intravenous administration in mice.
# COLO205 cells = test: COLO205 mouse transplanted tumor model; type: in vivo, BALB/c nu/nu mice; conditions: COLO205 xenograft, intraperitoneal, days 7, 11, 15, 19; p<0.001 vs hRS7-VK-SN38
# Source text: (§1) Five-week-old female athymic BALB/c nu/nu mice were purchased from Charles River Company (Shanghai, China), and mice were randomly divided into 5-6 mice/group. Animal handling and procedures were approved and performed in accordance with the requirements of the Institutional Animal Care and Use Committee (IACUC) of Shanghai Institute of Materia Medica, Chinese Academy of Sciences. All models were inoculated subcutaneously on the side of mice. BXPC-3, HCC1806 and NCIH1688 cells were established by injecting and homogenizing 5 × 10^6 cells in Matrigel matrix. COLO205 cells were established by injecting and suspending 1 × 10^7 cells in Matrigel matrix. […] The percentage of inhibition was calculated by the following formula: (1-average tumor volume of the treatment group/average tumor volume of the control group)×100%. Toxicity of the different treatment groups was assessed by monitoring weight loss.
# Mice inoculated with COLO205 cells (n = 6 per group) were treated with ADC or control drug on days 7, 11, 15, and 19, and tumor volume was measured two or three times a week. Statistical significance between treatment and control groups was assessed using a two-tailed t-test. ***P<0.001, comparing hRS7-VK-PTX with hRS7; p<0.001, comparing hRS7-VK-PTX with hRS7-VK-SN38, data = mean ± SD, the results are shown in FIG. 1c.
# [2] = test system: mixture of Trop-2-positive tumor cells BXPC-3 and Trop-2-negative tumor cells NCIH1688; test: Bystander effect: transplanted tumor from mixture of BXPC-3 and NCIH1688 cells; type: in vivo, BALB/c-nu/nu mice; conditions: 10 mg/kg, transplanted tumors heterogeneously expressing Trop-2
# Source text: (§2) Five-week-old female athymic BALB/c nu/nu mice were purchased from Charles River Company (Shanghai, China), and mice were randomly divided into 5-6 mice/group. Animal handling and procedures were approved and performed in accordance with the requirements of the Institutional Animal Care and Use Committee (IACUC) of Shanghai Institute of Materia Medica, Chinese Academy of Sciences. All models were inoculated subcutaneously on the side of mice. BXPC-3, HCC1806 and NCIH1688 cells were established by injecting and homogenizing 5 × 10^6 cells in Matrigel matrix. COLO205 cells were established by injecting and suspending 1 × 10^7 cells in Matrigel matrix. After the tumor volume reached about 200 mm^3, the tumor-bearing mice were randomly divided into treatment groups and a control group according to the tumor volume. Each drug was administered intraperitoneally. […] The percentage of inhibition was calculated by the following formula: (1-average tumor volume of the treatment group/average tumor volume of the control group)×100%. Toxicity of the different treatment groups was assessed by monitoring weight loss.
# (§3) A mixture of Trop-2-positive tumor cells BXPC-3 and Trop-2-negative tumor cells NCIH1688 or NCIH1688 cells alone were inoculated into BALB/c-nu/nu mice (FIG. 1e, right panel), and the “bystander effect” of hRS7-VK-PTX was detected in a mouse transplanted tumor model.
# BXPC-3 cells = test: BXPC-3 mouse transplanted tumor model; type: in vivo, BALB/c nu/nu mice
# Source text: as §1
# Mice inoculated with BXPC-3 cells (n = 5 per group) were treated with ADC or naked antibody on days 5, 13, and 21, and tumors were measured two or three times a week. On day 25, statistical significance between treatment and control groups was assessed using a two-tailed t-test. ***P<0.001, compared with hRS7 treatment group; *P<0.05, comparing hRS7-VK-PTX treatment group with PTX treatment group; compared with hRS7 treatment group, P<0.001, data=mean ± SD, the results are shown in FIG. 7a.
# [3] = test system: tumor cell lines with different expression levels of Trop-2; test: Cell viability assay (CCK-8), comparison across the cell panel; type: cell-based
# Procedure: Cell viability was determined using Cell Counting Kit 8 (CCK-8). Cells were seeded into 96-well plates at 3000-10000 cells/well. After incubation overnight, drugs were added at different concentrations. Plates were incubated in a 5% CO2, 37° C. humidified chamber for 96 hours. CCK8 reagent was added thereto and the plates were placed back to the incubator until the absorbance at 450 nm of untreated control cells was greater than 1.0. Growth inhibition was measured as the percent growth relative to untreated cells. Dose response curve was generated from the mean values of two or three tests, and IC50 values were calculated using Prism GraphPad software.
# The anti-tumor efficacy of different payloads on different tumor cell lines was detected by CCK-8, and the results are shown in FIG. 5.
# NCIH1688 cells = test: Transplanted tumor from NCIH1688 cells alone (not expressing Trop-2); type: in vivo, BALB/c-nu/nu mice; conditions: hRS7-VK-PTX 10 mg/kg, hRS7-VK-MMAE 3 mg/kg
# Source text: as §2, §3
# [4] = test system: MDA-MB-231 or CFPAC-1 cells; test: Detection of ADC endocytosis rate by flow cytometry; type: cell-based; conditions: Trop-2 expressing cells, 5 µg/mL ADC, 37° C.
# Procedure: To assess the endocytosis rate of ADC, MDA-MB-231 or CFPAC-1 cells (1 × 10^6) were incubated with 5 µg/mL of ADC samples in a staining medium for 30 min on ice, and washed twice, and then it was placed in a fresh complete medium. Internalization was initiated in a humidified chamber at 37° C. After the incubation, cells were washed twice with an ice-cold staining medium and then stained with goat anti-human IgG-PE. Cells were analyzed by flow cytometry to detect the level of ADC remaining on the surface.
# The internalization rate of ADC may affect its inhibitory efficiency against tumor cells.
substance,measurement,setting,value
hRS7-VK-PTX,toxicity or weight loss compared with placebo,[1]; single 100 mg/kg intravenous dose,no significant toxicity or weight loss
same,maximum tolerated dose (MTD),"[1]; single intravenous dose, highest dose 100 mg/kg",not reached
same,inhibition of transplanted tumor,COLO205 cells,more effective than hRS7-VK-SN38
same,tumor growth inhibition index (TGI),[2],99.5%
same,inhibition of transplanted tumor,"BXPC-3 cells; BXPC-3 xenograft, intraperitoneal, days 5, 13, 21",more effective than hRS7-VK-SN38
same,inhibition of transplanted tumor compared with PTX,"BXPC-3 cells; BxPC-3 model, 3 mg/kg of hRS7-VK-PTX, P = 0.0248",more effective than 10 mg/kg of PTX
same,efficacy of ADC in tumor cell lines with low expression of Trop-2,"[3]; COL0205, MDA-MB-231, SK - MES-1, Capan-1, NCIH2452",more effective than hRS7-VK-MMAE and hRS7-VK-SN38
same,inhibitory effect in PTX-resistant tumor cell lines,"[3]; SKBR3, CFPAC-1, MDA-MB-231 and COLO205",good inhibitory effect
same,killing effect on transplanted tumors not expressing Trop-2,NCIH1688 cells,had no such effect
same,internalization rate,[4],faster than hRS7-VK-MMAE and hRS7-VK-SN38
